Patent publication US20070116831A1, “Dental Composition with High-Potency Sweetener” (THE COCA-COLA COMPANY, priority 2005, published 2007)

Assay: Rate of dissolution in H2O at 25° C. of rebaudioside A polymorph and amorphous forms
Assay type: physicochemical
Conditions: within 60 minutes
From the text: The purification of rebaudioside A by crystallization as described above results in the formation of at least three different polymorphs: Form 1: a rebaudioside A hydrate; Form 2: an anhydrous rebaudioside A; and Form 3: a rebaudioside A solvate. In addition to the at least three polymorph forms of rebaudioside A, the purification of rebaudioside A may result in the formation of an amorphous form of rebaudioside A, Form 4. The aqueous organic solution and temperature of the purification process influence the resulting polymorph and amorphous forms in the substantially pure rebaudioside A composition. FIGS. 1-5 are exemplary powder x-ray diffraction (XRPD) scans of the polymorph and amorphous forms Form 1 (hydrate), Form 2 (anhydrate), Form 3A (methanol solvate), Form 3B (ethanol solvate), and Form 4 (amorphous), respectively.

Question: For rebaudioside A [Form 1], which “Rate of dissolution in H2O at 25° C.” value is on record?
Answer: Very low (<0.2%/ %/60 minutes
